Experimental data from patent US20240150301A1, “METHODS OF MODULATING ANDROGEN RECEPTOR CONDENSATES” (ETERN BIOPHARMA (SHANGHAI) CO., LTD., priority 2021, published 2024).
pIC50: −log10 of the molar value.

Columns and labels:
[1] = molecular target: T1, AR V7 (Homo sapiens, UniProt P10275); test: ARE-luciferase reporter assay in 22Rv1 cells (endogenous AR-V7); type: cell-based; parameters: 22Rv1(Cobioer) prostate cancer cell line, which expresses endogenous AR-V7; host or cells: 22Rv1; settings: 22Rv1, hormone-starved, 24 h; read-out: 22Rv1 ARE-luc IC50
T1 sequence (P10275 1-644 isoform P10275-3): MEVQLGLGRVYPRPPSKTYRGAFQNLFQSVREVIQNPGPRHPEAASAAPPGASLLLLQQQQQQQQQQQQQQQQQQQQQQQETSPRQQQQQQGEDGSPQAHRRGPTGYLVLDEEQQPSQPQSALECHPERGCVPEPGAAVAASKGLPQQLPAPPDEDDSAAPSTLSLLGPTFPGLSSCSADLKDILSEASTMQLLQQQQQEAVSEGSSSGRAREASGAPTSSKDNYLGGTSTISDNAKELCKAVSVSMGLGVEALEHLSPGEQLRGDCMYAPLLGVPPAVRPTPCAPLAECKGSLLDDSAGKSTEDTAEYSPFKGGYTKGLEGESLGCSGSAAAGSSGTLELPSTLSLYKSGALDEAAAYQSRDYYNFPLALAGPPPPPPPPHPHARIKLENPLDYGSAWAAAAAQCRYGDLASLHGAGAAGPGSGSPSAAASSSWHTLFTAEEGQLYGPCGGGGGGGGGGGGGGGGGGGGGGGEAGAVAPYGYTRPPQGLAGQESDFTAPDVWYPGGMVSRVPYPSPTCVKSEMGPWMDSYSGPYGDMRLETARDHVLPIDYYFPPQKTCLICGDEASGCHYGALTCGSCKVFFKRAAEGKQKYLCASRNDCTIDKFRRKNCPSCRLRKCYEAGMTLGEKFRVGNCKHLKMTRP
Description: The ARE-luciferase reporter plasmid contains functional AREs (androgen response elements) to which AR binds in response to androgen to induce luciferase activity. LNCaP (Cobioer) cells were transiently transfected with the ARE-luciferase reporter in charcoal stripped FBS/phenol red-free RPMI medium prior to treatment for 24 hours. Then DMSO or test compounds with serial diluted concentrations were added one hour prior to the addition of DHT(1 nM). After 24 h of incubation with DHT, cells were lysed and luciferase activity was assayed using the ONE-Glo™ Luciferase Assay System (Promega) and measured using EnVision Multimode Plate Reader, according to manufacturer's instructions. Values were normalized to cell viability determined by CellTiter-Glo® Luminescent Cell Viability Assay Kit (Promega). […] GraphPad Prism graphing software was used to calculate IC50 values.
To evaluate the transcriptional activity of AR-V7, HEK293T(Cobioer) cells were transiently cotransfected with an expression vector for AR-V7 and the ARE-luciferase reporter in hormone-starved conditions. For 22Rv1(Cobioer) prostate cancer cell line, which expresses endogenous AR-V7, ARE-luciferase reporter was transiently transfected in hormone-starved conditions. 24 h after transfection, DMSO or test compounds with serial diluted concentrations were added for additional 24 h incubation. Reporter activity was detected and normalized by cell viability as described above. Treatments were normalized to DMSO control activity, and IC50 values were further determined via GraphPad Prism graphing software.

[2] = molecular target: T2, AR-mEGFP nuclear puncta in LNCaP cells (Homo sapiens, UniProt P10275); test: AR phase separation inhibition IC50 testing (nuclear puncta imaging); type: cell-based; settings: for pIC50: LNCaP, compound 3 h before 20 nM DHT, 3 h DHT
T2 construct: expressed in transfected cells; host or cells: LNCaP
T2 sequence (P10275 1-920): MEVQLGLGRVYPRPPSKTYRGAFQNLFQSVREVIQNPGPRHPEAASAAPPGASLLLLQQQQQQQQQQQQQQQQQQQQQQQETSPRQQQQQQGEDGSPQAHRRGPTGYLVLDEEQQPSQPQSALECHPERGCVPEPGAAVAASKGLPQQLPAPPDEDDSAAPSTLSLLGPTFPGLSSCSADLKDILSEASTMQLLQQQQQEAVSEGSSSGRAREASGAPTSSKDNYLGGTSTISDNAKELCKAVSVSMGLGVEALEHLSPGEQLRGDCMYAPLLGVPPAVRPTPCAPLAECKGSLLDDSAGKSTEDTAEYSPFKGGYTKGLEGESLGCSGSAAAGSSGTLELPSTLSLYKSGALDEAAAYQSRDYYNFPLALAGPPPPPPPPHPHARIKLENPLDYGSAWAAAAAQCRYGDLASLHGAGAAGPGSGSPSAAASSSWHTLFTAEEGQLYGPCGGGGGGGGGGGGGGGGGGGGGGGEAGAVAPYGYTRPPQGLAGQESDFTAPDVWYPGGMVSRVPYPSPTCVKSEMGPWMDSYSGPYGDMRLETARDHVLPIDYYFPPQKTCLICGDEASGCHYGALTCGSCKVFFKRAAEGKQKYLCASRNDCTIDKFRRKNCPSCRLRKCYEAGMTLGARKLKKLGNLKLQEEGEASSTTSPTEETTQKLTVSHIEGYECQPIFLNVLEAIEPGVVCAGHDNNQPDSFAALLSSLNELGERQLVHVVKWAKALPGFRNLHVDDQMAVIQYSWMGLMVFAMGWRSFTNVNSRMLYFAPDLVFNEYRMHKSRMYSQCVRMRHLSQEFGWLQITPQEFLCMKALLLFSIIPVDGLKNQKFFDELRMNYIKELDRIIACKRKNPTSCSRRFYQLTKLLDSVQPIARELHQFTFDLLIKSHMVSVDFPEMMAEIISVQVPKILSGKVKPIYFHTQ
Description: Nuclear Puncta Imaging for Compounds IC50 Determination • LNCaP cells were cultured in a 10-cm dish. Cells were transfected with AR (AR or AR F877L/T878A)-mEGFP expression plasmids (pMSCV vector, 12 μg plasmid per 10-cm dish). 12 hours after transfection, medium were replaced with steroid hormone-free and phenol red-free RPMI1640 (starvation medium) and continued to starve for another 24 hours. Cells (80 μl, 20,000 per well) were seeded in a 96-well glass bottom plate (Cellvis, P96-1.5H-N) and cultured for another 24 hours. Then cells were incubated with 10× serial-diluted compounds […] for 3 hours before 20 nM DHT stimulation […]. After 3 hours DHT addition, cells were fixed with equal volume pre-warmed 8% PFA for 30 minutes and subsequently replaced with 100 μl PBS. Nuclear puncta images were acquired with Operetta CLS (Perkin Elmer) equipped with 60× water immersion lens (40 fields per well). The images were analyzed with Operetta built-in analysis modules. Nuclei were found from illumination corrected images with find nuclei module (type M) and filtered out low intensity nuclei. Subsequently puncta were first identified using find spot module (type A) and classified to high confident puncta and low confident puncta with PhenoLOGIC machine learning plug-in. For better representation, only high confident puncta were kept. The analyzed image puncta data were exported and statistics were processed with R/Bioconductor. The specific IC50 values were calculated by R/drc package (four-parameter log-logistic function).

SMILES: CC(C)(c1ccc(OCc2ccnc(N=S3(=O)CCNCC3)n2)cc1)c1cc(Cl)c(OCCCl)c(C#N)c1 [Compound 6, 3-chloro-2-(2-chloroethoxy)-5-(2-(4-((2-((1-oxido-1λ^6-thiomorpholin-1-ylidene)amino)pyrimidin-4-yl)methoxy)phenyl)propan-2-yl)benzonitrile]
- pIC50 [1]: 5.07
- AR phase separation (FIG. 7) [2]: inhibited AR phase separation
- pIC50 [2]: 5.44

SMILES: CC(C)(c1ccc(C#Cc2cnc(NS(C)(=O)=O)nc2)cc1)c1cc(Cl)c(OCCCl)c(C#N)c1 [Compound 60, N-(5-((4-(2-(3-chloro-4-(2-chloroethoxy)-5-cyanophenyl)propan-2-yl)phenyl)ethynyl)pyrimidin-2-yl)methanesulfonamide]
- AR phase separation (FIG. 7) [2]: inhibited AR phase separation
- pIC50 [2]: 5.60

SMILES: CC(C)(c1ccc(OCc2ccnc(NS(C)(=O)=O)n2)cc1)c1cc(Cl)c(OCCCl)c(C#N)c1 [Compound AA, N-(4-((4-(2-(3-chloro-4-(2-chloroethoxy)-5-cyanophenyl)propan-2-yl)phenoxy)methyl)pyrimidin-2-yl) methane sulfonamide, reference compound]
- pIC50 [1]: < 4.70
- AR phase separation (FIG. 7) [2]: did not show inhibition
- pIC50 [2]: < 4.70
